Laboratory results from paper PMC6965684, “Characterization of binding, functional activity, and contractile responses of the selective 5‐HT1F receptor agonist lasmiditan” (British Journal of Pharmacology, 2019).
Structures can show the parent of a compound that is named as a salt. Where two headings read alike, the source gives them in different places.

Assays:
5-ht1E receptor [1] = target: T1, 5-ht1E receptor (Homo sapiens, UniProt P28566); experiment: radioligand competition, CHO-K1 membranes; type: binding
T1 construct: gene HTR1E; full-length human recombinant receptor in CHO-K1 cells (Ogeda); crude membranes
T1 sequence (P28566 whole entry): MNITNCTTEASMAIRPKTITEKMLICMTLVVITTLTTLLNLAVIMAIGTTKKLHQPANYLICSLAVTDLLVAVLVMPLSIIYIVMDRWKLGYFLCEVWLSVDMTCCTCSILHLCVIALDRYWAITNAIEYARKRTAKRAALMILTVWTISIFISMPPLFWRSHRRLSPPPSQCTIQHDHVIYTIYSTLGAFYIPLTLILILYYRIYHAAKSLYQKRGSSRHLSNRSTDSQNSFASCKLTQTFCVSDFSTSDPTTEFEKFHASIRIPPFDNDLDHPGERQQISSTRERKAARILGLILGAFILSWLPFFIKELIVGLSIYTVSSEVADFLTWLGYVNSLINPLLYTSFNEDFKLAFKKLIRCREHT
Source text: radioligand competition, CHO-K1 membranes on 5-ht1E receptor

5-HT2B receptor = target: T2, 5-HT2B receptor (Homo sapiens, UniProt P41595); experiment: radioligand competition, CHO-K1 membranes; type: binding
T2 construct: gene HTR2B; full-length human recombinant receptor in CHO-K1 cells (Ogeda); crude membranes
T2 sequence (P41595 whole entry): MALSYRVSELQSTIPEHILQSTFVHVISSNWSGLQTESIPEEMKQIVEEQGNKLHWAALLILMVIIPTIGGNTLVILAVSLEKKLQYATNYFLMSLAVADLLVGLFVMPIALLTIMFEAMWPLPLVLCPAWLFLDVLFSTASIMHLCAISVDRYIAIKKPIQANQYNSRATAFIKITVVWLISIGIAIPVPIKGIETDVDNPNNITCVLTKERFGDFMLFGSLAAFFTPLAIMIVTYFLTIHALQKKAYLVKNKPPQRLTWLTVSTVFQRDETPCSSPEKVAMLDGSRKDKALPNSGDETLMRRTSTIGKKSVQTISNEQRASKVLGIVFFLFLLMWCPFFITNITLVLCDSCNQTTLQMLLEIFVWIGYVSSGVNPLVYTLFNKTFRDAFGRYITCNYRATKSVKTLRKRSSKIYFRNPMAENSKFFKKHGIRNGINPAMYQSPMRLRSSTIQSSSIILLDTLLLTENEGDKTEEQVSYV
Source text: radioligand competition, CHO-K1 membranes on 5-HT2B receptor

5-ht1E receptor [2] = target: T1, 5-ht1E receptor; experiment: biochemical; type: CHO-K1 membranes; design: GTPγS agonist functional assay; conditions: GTPγS
Source text: Additionally, the reference values obtained were compared to historical values obtained from the same receptor and used to validate the experimental session. […] For the new assays developed in this study (i.e., 5‐ht1E receptor), the two independent pIC50 determined must be concordant with a 1 log unit interval for the assays to be validated.

5-ht1E receptor [3] = target: T1, 5-ht1E receptor; experiment: cell-based; design: species or system CHO-K1; cAMP HTRF agonist assay, Gi coupled receptors, inhibition of stimulated cAMP; conditions: cAMP
Protocol: Concentration–response curves were performed in parallel with the agonists. […] After addition of the lysis buffer and 1‐hr incubation, cAMP concentrations were estimated according to the manufacturer specification with the HTRF kit (Cisbio International, Codelet, France). In brief, increasing concentrations of agonists were added to stably transfected cells in buffer in an Optiplate (PerkinElmer Life Sciences, Massachusetts, USA). The plates were incubated, and cells were then lysed by the addition of HTRF reagents (cAMP‐Cryptate and anti‐cAMP‐d2 reagents) and diluted in lysis buffer, followed by incubation at room temperature. […] Additionally, the reference values obtained were compared to historical values obtained from the same receptor and used to validate the experimental session. […] For the new assays developed in this study (i.e., 5‐ht1E receptor), the two independent pIC50 determined must be concordant with a 1 log unit interval for the assays to be validated.

5-ht1E receptor [4] = target: T1, 5-ht1E receptor; experiment: biochemical; type: CHO-K1 membranes; design: radioligand competition binding on cell membranes, filtration and TopCount scintillation counting; conditions: radioligand displacement; read-out: 5‐ht1E / pIC50 (converted)
Protocol: (§1) Competition binding was performed in duplicate in the wells of a 96‐well plate containing binding buffer (optimized for each receptor), cell membrane extracts (approximately 20,000 cells distributed in the 96‐well plate), radiotracer, and test agonist. Non‐specific binding was determined by co‐incubation with 200‐fold excess of competitor. Cells were incubated and exposed to varying concentrations (1 pM to 10 μM) of a range of displacer agonists (see below). The samples were incubated in a final volume of 0.1 ml and then filtered over Unifilter plates (Perkin Elmer, Massachusetts, USA) pretreated for 2 hr to limit tracer non‐specific binding. Filters were washed five times with 0.5 ml of ice‐cold washing buffer (tris 50 mM pH 7.4) and 50 μl of Microscint 20 (Perkin Elmer) were added to each filter. The plates were incubated 15 min at room temperature on an orbital shaker and then counted with a TopCount™ (Perkin Elmer) for 1 min per well. […] Additionally, the reference values obtained were compared to historical values obtained from the same receptor and used to validate the experimental session. […] For the new assays developed in this study (i.e., 5‐ht1E receptor), the two independent pIC50 determined must be concordant with a 1 log unit interval for the assays to be validated.

5-HT2A receptor [5] = target: T3, 5-HT2A receptor (Homo sapiens, UniProt P28223); experiment: cell-based; design: species or system CHO-K1; IPOne HTRF agonist assay, IP1 accumulation in adherent transfected cells
T3 construct: gene HTR2A; full-length human recombinant receptor in CHO-K1 cells (Ogeda); crude membranes
T3 sequence (P28223 whole entry): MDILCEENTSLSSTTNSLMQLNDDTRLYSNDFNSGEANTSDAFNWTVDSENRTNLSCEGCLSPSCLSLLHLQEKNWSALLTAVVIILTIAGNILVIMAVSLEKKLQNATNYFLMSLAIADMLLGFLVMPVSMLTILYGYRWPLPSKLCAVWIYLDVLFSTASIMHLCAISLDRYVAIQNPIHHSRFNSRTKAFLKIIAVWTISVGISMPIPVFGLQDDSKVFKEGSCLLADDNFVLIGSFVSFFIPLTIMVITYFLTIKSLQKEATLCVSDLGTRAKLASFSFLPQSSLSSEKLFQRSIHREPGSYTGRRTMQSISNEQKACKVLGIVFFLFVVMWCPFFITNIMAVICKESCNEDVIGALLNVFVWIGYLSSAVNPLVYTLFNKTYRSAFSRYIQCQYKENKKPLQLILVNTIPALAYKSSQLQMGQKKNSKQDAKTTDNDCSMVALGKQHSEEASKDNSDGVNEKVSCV
Protocol: The assay was performed on adherent cells. For agonist testing, the medium was removed and 20 μl of assay buffer plus 20 μl of the studied agonist or the reference agonist were added in each well. The plate was incubated for 60 min at 37°C with 5% CO2. IP1‐D2 reagent and anti‐IP1 cryptate reagents were dispensed in the wells, and IP1 concentrations were then measured following the manufacturer instructions (IPOne HTRF assay kit; Cisbio International, Codolet, France). In brief, increasing concentrations of agonists were added to stably transfected cells in buffer in an Optiplate (PerkinElmer Life Sciences). The plates were incubated, and cells were then lysed by the addition of HTRF reagents (IP1‐D2 reagent and anti‐IP1 cryptate reagents) and diluted in lysis buffer, followed by incubation at room temperature. […] Additionally, the reference values obtained were compared to historical values obtained from the same receptor and used to validate the experimental session. […] For the new assays developed in this study (i.e., 5‐ht1E receptor), the two independent pIC50 determined must be concordant with a 1 log unit interval for the assays to be validated. […]

5-HT2A receptor [6] = target: T3, 5-HT2A receptor; experiment: biochemical; type: CHO-K1 membranes; design: radioligand competition binding on cell membranes, filtration and TopCount scintillation counting
Protocol: as §1, with “validated. […]” for “validated.”

5-HT1A receptor = target: T4, 5-HT1A receptor (Homo sapiens, UniProt P08908); experiment: radioligand competition, CHO-K1 membranes; type: binding; conditions: radioligand listed in supplement Table S1
T4 construct: gene HTR1A; full-length human recombinant receptor in CHO-K1 cells (Ogeda); crude membranes
T4 sequence (P08908 1-422): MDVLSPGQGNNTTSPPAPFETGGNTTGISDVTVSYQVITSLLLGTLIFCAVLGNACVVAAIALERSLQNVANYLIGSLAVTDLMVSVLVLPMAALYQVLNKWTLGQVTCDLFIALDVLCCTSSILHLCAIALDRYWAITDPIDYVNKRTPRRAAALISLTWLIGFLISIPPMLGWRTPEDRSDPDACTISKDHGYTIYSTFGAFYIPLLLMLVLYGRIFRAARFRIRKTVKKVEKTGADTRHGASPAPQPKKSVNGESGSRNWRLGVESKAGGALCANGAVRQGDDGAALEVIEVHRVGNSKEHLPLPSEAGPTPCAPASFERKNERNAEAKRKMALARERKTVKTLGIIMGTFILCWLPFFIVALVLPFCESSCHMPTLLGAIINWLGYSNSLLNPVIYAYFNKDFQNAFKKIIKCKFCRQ
Source text: radioligand competition, CHO-K1 membranes on 5-HT1A receptor

5-HT1D receptor = target: T5, 5-HT1D receptor (Homo sapiens, UniProt P28221); experiment: radioligand competition, CHO-K1 membranes; type: binding; conditions: radioligand listed in supplement Table S1
T5 construct: gene HTR1D; full-length human recombinant receptor in CHO-K1 cells (Ogeda); crude membranes
T5 sequence (P28221 whole entry): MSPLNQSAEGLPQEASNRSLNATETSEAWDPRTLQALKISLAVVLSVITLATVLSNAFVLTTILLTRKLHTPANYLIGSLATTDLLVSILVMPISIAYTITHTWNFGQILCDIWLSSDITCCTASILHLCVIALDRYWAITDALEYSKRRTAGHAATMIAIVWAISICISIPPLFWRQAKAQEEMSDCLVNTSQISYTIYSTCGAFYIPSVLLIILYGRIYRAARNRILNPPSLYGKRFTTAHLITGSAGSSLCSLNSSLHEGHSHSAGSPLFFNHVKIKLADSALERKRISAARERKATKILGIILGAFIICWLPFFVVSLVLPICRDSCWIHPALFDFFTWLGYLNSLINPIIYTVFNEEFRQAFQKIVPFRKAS
Source text: radioligand competition, CHO-K1 membranes on 5-HT1D receptor

5-HT1F receptor [7] = target: T6, 5-HT1F receptor (Homo sapiens, UniProt P30939); experiment: radioligand competition, CHO-K1 membranes; type: binding; conditions: radioligand listed in supplement Table S1
T6 construct: gene HTR1F; full-length human recombinant receptor in CHO-K1 cells (Ogeda)
T6 sequence (P30939 1-366): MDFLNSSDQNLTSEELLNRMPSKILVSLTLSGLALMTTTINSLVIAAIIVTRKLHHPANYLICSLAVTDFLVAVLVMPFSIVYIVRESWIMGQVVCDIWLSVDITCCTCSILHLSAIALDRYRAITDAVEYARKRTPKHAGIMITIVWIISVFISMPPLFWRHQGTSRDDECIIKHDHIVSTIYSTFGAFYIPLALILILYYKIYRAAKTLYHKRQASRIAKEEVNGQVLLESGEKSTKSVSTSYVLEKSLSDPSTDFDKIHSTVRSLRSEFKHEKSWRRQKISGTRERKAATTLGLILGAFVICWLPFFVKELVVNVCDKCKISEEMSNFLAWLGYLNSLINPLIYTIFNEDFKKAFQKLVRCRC

5-HT1B receptor = target: T7, 5-HT1B receptor (Homo sapiens, UniProt P28222); experiment: radioligand competition, CHO-K1 membranes; type: binding; conditions: radioligand listed in supplement Table S1
T7 construct: gene HTR1B; full-length human recombinant receptor in CHO-K1 cells (Ogeda); crude membranes
T7 sequence (P28222 whole entry): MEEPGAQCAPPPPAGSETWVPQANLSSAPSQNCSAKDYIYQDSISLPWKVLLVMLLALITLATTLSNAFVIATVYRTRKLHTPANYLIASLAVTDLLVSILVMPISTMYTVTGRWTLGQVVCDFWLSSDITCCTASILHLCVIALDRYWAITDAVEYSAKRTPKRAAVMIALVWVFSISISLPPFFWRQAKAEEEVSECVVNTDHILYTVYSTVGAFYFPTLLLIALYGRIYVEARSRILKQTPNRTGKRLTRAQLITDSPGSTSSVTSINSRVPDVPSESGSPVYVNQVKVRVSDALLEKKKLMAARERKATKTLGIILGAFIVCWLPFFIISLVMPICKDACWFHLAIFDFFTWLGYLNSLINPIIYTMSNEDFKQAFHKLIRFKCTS
Source text: radioligand competition, CHO-K1 membranes on 5-HT1B receptor

5-HT1F receptor [8] = target: T6, 5-HT1F receptor; experiment: cAMP HTRF, stably transfected CHO-K1 cells; type: cell-based; conditions: agonist mode; inhibition of stimulated cAMP, […] min, room temperature
[9] = IP, read-out: 5‐HT2A / IP (converted)
[10] = radioligand displacement, read-out: 5‐HT2A / pIC50 (converted)
[11] = radioligand listed in supplement Table S1
[12] = radioligand displacement, read-out: 5‐HT2A / pKi (converted)

CNS(=O)(=O)Cc1ccc2[nH]cc(CCN(C)C)c2c1 [Sumatriptan succinate]
Ki (5-ht1E receptor [1]; read-out: 5-ht1E / pKi (converted)): 1.91 µM | Ki (5-HT2B receptor; read-out: / pKi (converted)): > 10 µM | EC50 (5-ht1E receptor [2]): 1.62 µM | EC50 (5-ht1E receptor [3]): 1.02 µM | IC50 (5-ht1E receptor [4]): 3.8 µM

c1ccc2c(c1)CC[C@H](CNCCCNC1=NCCCN1)O2 [Alniditan dihydrochloride]
EC50 (5-HT2A receptor [5]; [9]): > 10 µM | IC50 (5-HT2A receptor [6]; [10]): > 10 µM

CN(C)CCc1c[nH]c2ccc(Cn3cncn3)cc12 [Rizatriptan benzoate]
EC50 (5-HT2A receptor [5]): > 10 µM | IC50 (5-HT2A receptor [6]): > 10 µM | Ki (5-HT2A receptor [6]): > 10 µM

CN(C)CCc1c[nH]c2ccc(CS(=O)(=O)N3CCCC3)cc12 [Almotriptan malate]
5-HT1A / pKi (5-HT1A receptor): 6.73 -log M | EC50 (5-HT2A receptor [5]; [9]): > 10 µM | 5-ht1E / pKi (5-ht1E receptor [1]; [11]): < 5 -log M | 5-HT1D / pKi (5-HT1D receptor): 8.26 -log M | 5-HT1F / pKi (5-HT1F receptor [7]): 7.57 -log M | 5-HT1B / pKi (5-HT1B receptor): 8.45 -log M | / pKi (5-HT2B receptor; [11]): < 5 -log M | IC50 (5-HT2A receptor [6]; [10]): > 10 µM | Ki (5-HT2A receptor [6]; [12]): > 10 µM | 5-HT1F / cAMP (5-HT1F receptor [8]): 7.79 -log M

CN(C)CCc1c[nH]c2ccc(C[C@H]3COC(=O)N3)cc12 [Zolmitriptan]
EC50 (5-HT2A receptor [5]; [9]): > 10 µM | IC50 (5-HT2A receptor [6]; [10]): > 10 µM | Ki (5-HT2A receptor [6]; [12]): > 10 µM

CN1CCC(c2c[nH]c3ccc(NC(=O)c4ccc(F)cc4)cc23)CC1 [LY334370 hydrochloride]
EC50 (5-HT2A receptor [5]; [9]): > 10 µM | IC50 (5-HT2A receptor [6]; [10]): 7.76 µM
